In series [1] the test system is Myzus persicae. Kind of series: Myzus persicae - spray test (Chinese cabbage leaf discs). It counts as in vivo. The settings on record: Myzus persicae, foliar; application rate 500 g/ha, after 5-6 days; read-out: efficacy. The method, then:
Myzus persicae—Spray Test
Solvent: 78 parts by weight of acetone • • 1.5 parts by weight of dimethylformamide
(§1) Emulsifier: alkylaryl polyglycol ether
(§2) To produce a suitable active compound preparation, 1 part by weight of active compound is dissolved using the stated parts by weight of solvent and made up with water containing an emulsifier concentration of 1000 ppm until the desired concentration is attained. To produce further test concentrations, the formulation is diluted with emulsifier-containing water.
Discs of Chinese cabbage leaves (Brassica pekinensis) infested by all stages of the green peach aphid (Myzus persicae) are sprayed with an active ingredient formulation of the desired concentration.
After 5-6 days, the efficacy in % is determined. 100% means that all the aphids have been killed; 0% means that no aphids have been killed.

The subject of series [2] is Myzus persicae. Kind of series: Myzus persicae - oral test. It counts as in vivo. The note with it: Myzus persicae, po, 120 h; application rate 20 ppm, after 5 days; read-out: efficacy. The method, then: (§3) Solvent: 100 parts by weight of acetone
(§4) To produce a suitable preparation of active compound, 1 part by weight of active compound is dissolved using the specified parts by weight of solvent and made up with water until the desired concentration is attained.
(§5) 50 μl of the active compound preparation are transferred into microtitre plates and made up to a final volume of 200 μl with 150 μl of IPL41 insect medium (33%+15% sugar). Subsequently, the plates are sealed with parafilm, which a mixed population of green peach aphids (Myzus persicae) within a second microtitre plate is able to puncture and imbibe the solution through it.
After 5 days, the efficacy in % is determined. 100% means that all the aphids have been killed; 0% means that no aphids have been killed.

In series [3] the test system is Myzus persicae. Kind of series: Myzus persicae - spray test (MYZUPE), Chinese cabbage leaf discs. The class given is in vivo. The settings on record: foliar; for percent efficacy (aphid mortality) at 20 g/ha / Emax at 20 g/ha: 20 g of ai/ha; for percent efficacy (aphid mortality) at 100 g/ha: 100 g of ai/ha; for Emax at 20 g/ha: read-out: % efficacy. The procedure:
Myzus persicae—Spray Test (MYZUPE)
Solvent: 78.0 parts by weight of acetone • • 1.5 parts by weight of dimethylformamide
as §1, §2
Discs of Chinese cabbage leaves (Brassica pekinensis) infested by all stages of the green peach aphid (Myzus persicae) are sprayed with an active compound preparation of the desired concentration.
(§6) After the desired period of time, the efficacy in % is determined. 100% means that all the aphids have been killed; 0% means that no aphids have been killed.

For series [4], the system named is Myzus persicae. Kind of series: Myzus persicae - oral test (MYZUPE O). It counts as in vivo. The settings on record: 120 h, 5 dat, read-out: % efficacy. The procedure:
Myzus persicae—Oral Test (MYZUPE O)
as §3, §4, §5, §6

Series [5] deals with Myzus persicae. Kind of series: Myzus persicae - spray test (MYZUPE S), bell pepper plants. It counts as in vivo. The settings on record: 144 h, 6 dat, read-out: % efficacy. The procedure: Myzus persicae—Spray Test (MYZUPE S)
(§7) Solvent: 14 parts by weight of dimethylformamide
as §1
To produce a suitable active compound preparation, 1 part by weight of active compound is dissolved with the specified parts by weight of solvent and made up with water containing an emulsifier concentration of 1000 ppm until the desired concentration is attained. To produce further test concentrations, the formulation is diluted with emulsifier-containing water. If the addition of ammonium salts or/and penetrants is required, these are each added in a concentration of 1000 ppm to the formulation solution.
Bell pepper plants (Capsicum annuum) severely infested with the green peach aphid (Myzus persicae) are treated by spraying with the active ingredient formulation in the desired concentration.
After the desired time, the kill in % is determined. 100% means that all the animals have been killed; 0% means that no animals have been killed.

Series [6] has as its system Myzus persicae. Kind of series: Myzus persicae - drench test (MYZUPE D), Savoy cabbage in soil. The class given is in vivo. The note with it: 240 h, 10 dat, read-out: % efficacy. The method, then:
Myzus persicae—Drench Test (MYZUPE D)
To produce a suitable active compound preparation, 1 part by weight of active compound is mixed with the specified amounts of solvent and emulsifier, and the concentrate is diluted with water to the desired concentration, it being necessary to include the volume of soil which is drenched in the calculation. It should be ensured that a concentration of 40 ppm of emulsifier in the soil is not exceeded. To produce further test concentrations, water is used for dilution.
Savoy cabbage (Brassica oleracea) in pots with soil and infested by all stages of the green peach aphid (Myzus persicae) is watered with an active compound preparation of the desired concentration.
as §6

Series [7] deals with Aphis gossypii. Kind of series: Aphis gossypii - spray test (APHIGO S), cotton plants. It counts as in vivo. The note with it: 144 h, 6 dat, read-out: % efficacy. The procedure:
Aphis gossypii—Spray Test (APHIGO S)
as §7, §1
To produce a suitable active compound preparation, 1 part by weight of active compound is dissolved using the stated parts by weight of solvent and made up with water containing an emulsifier concentration of 1000 ppm until the desired concentration is attained. To produce further test concentrations, the formulation is diluted with emulsifier-containing water. If the addition of ammonium salts or/and penetrants is required, these are each added in a concentration of 1000 ppm to the formulation solution.
Cotton plants (Gossypium hirsutum) heavily infested by the cotton aphid (Aphis gossypii) are sprayed with an active ingredient formulation of the desired concentration.
After the desired time, the kill in % is determined. 100% means that all the aphids have been killed; 0% means that no aphids have been killed.

The nature of series [8]: log P by HPLC on reversed-phase (C18) columns, OECD Guideline 117. The class given is physicochemical. The settings on record: reversed-phase (C18) HPLC column. The method, then: The log P values were determined in accordance with OECD Guideline 117 (EC Directive 92/69/EEC) by HPLC (high-performance liquid chromatography) using reversed-phase (RP) columns (C18), by the following methods:
[a] The LC-MS determination in the acidic range was carried out at pH 2.7 with 0.1% aqueous formic acid and acetonitrile (contains 0.1% formic acid) as mobile phases; linear gradient from 10% acetonitrile to 95% acetonitrile.
[b] LC-MS determination in the neutral range was carried out at pH 7.8 with 0.001 molar aqueous ammonium hydrogencarbonate solution and acetonitrile as mobile phases; linear gradient from 10% acetonitrile to 95% acetonitrile.

Where [9] appears, read: acidic range, pH 2.7, 0.1% aqueous formic acid/acetonitrile, read-out: logP[a].
Where [10] appears, read: neutral range, pH 7.8, aqueous ammonium hydrogencarbonate/acetonitrile, read-out: logP[n].

Like-named read-outs stand apart in the source and are kept apart here.

For `CSCc1ncc(C(=O)N(C)c2cccnc2)n1C` [Example I-1-26], the pest or weed control at 500 g/ha in series [1] was determined as 100%. Also, the pest or weed control at 20 ppm in series [2] was determined as 100%. Moreover, the percent efficacy (aphid mortality) at 20 g/ha in series [3] (120 h, 5 dat) stood at 90%. In series [3] (120 h, 5 dat), this compound returned a percent efficacy (aphid mortality) at 100 g/ha of 90%. In addition, the Emax at 4 ppm in series [4] worked out at 100%; in series [7] (4 ppm), 98%. Also, the Emax at 0.16 ppm was 95% in series [5] and 90% in series [6]. Besides, the Emax at 0.8 ppm in series [7] was determined as 30%. The chromatographic logP is -0.04 in series [8] (setting [9]) and 0.98 in series [8] (setting [10]).
As to `CCS(=O)(=O)Cc1ncc(C(=O)N(C)c2cccnc2)n1C` [Example I-1-28], the pest or weed control at 500 g/ha in series [1] stood at 100%. Further, the pest or weed control at 20 ppm in series [2] amounted to 100%. In addition, in series [3] (120 h, 5 dat), the Emax at 20 g/ha amounted to 100%. In series [3] (120 h, 5 dat), the percent efficacy (aphid mortality) at 100 g/ha was 90%. Further, the Emax at 4 ppm in series [4] and in series [7] (4 ppm) was 100% in each case. Also, the Emax at 0.16 ppm in series [5] and in series [6] was 95% each time. Also, the Emax at 0.8 ppm in series [7] is 98%. Besides, the chromatographic logP in series [8] (setting [9]) came out at 0.35; in series [8] (setting [10]), 0.65.
`CN(C(=O)c1cnc(CSC(C)(C)C)n1C)c1cccnc1` [Example I-1-33]: the pest or weed control at 500 g/ha in series [1] was determined as 100%. Also, in series [2], the pest or weed control at 20 ppm worked out at 100%. Further, in series [3] (120 h, 5 dat), the Emax at 20 g/ha amounted to 100%. In addition, the percent efficacy (aphid mortality) at 100 g/ha in series [3] (120 h, 5 dat) came to 90%. The Emax at 4 ppm in series [4] was found to be 100%; in series [7] (4 ppm), 75%. The Emax at 0.16 ppm in series [6] came to 90%. Moreover, the chromatographic logP in series [8] (setting [9]) came out at 0.97; in series [8] (setting [10]), 1.67.
For the compound `CN(C(=O)c1cnc(Cn2cccn2)n1C)c1cccnc1` [Example I-1-43, N,1-Dimethyl-2-(1H-pyrazol-1-ylmethyl)-N-(pyridin-3-yl)-1H-imidazole-5-carboxamide], the pest or weed control at 500 g/ha in series [1] stood at 100%. The pest or weed control at 20 ppm in series [2] was 100%. In series [3] (96 h, 4 dat), this compound displayed a percent efficacy (aphid mortality) at 20 g/ha of 90%. Moreover, the percent efficacy (aphid mortality) at 100 g/ha in series [3] (96 h, 4 dat) is 90%. For the same compound, the Emax at 4 ppm in series [4] was determined as 100%; in series [7] (4 ppm), 98%. Moreover, in series [6], the Emax at 0.16 ppm came out at 70%. Moreover, the Emax at 0.8 ppm in series [7] was 30%. Besides, the chromatographic logP stood at 0.35 in series [8] (setting [9]) and 0.81 in series [8] (setting [10]).
On to `CN(C(=O)c1cnc(Cn2ccc(C(F)(F)F)n2)n1C)c1cccnc1` [Example I-1-44], for which the pest or weed control at 500 g/ha in series [1] came to 100%. The pest or weed control at 20 ppm in series [2] was 100%. The percent efficacy (aphid mortality) at 20 g/ha in series [3] (96 h, 4 dat) is 90%. The compound also registered a percent efficacy (aphid mortality) at 100 g/ha in series [3] (96 h, 4 dat) of 90%. Moreover, the values for the Emax at 4 ppm in series [4] and in series [7] (4 ppm) were 100% and 99%, respectively. The Emax at 0.16 ppm in series [6] amounted to 90%. Besides, in series [7], the Emax at 0.8 ppm is 55%. Also, the chromatographic logP in series [8] (setting [9]) worked out at 1.46; in series [8] (setting [10]), 1.64.
Consider `CN(C(=O)c1cnc(Cn2cc(C(F)(F)F)cn2)n1C)c1cccnc1` [Example I-1-45], for which, in series [1], the pest or weed control at 500 g/ha was determined as 90%. Also, the pest or weed control at 20 ppm in series [2] came out at 100%. The compound also returned a percent efficacy (aphid mortality) at 100 g/ha in series [3] (96 h, 4 dat) of 100%. The Emax at 4 ppm in series [4] is 100%. Also, the Emax at 0.16 ppm in series [6] is 80%. In series [7], the percent kill (mortality) of aphids at a fixed dose at 0.8 ppm came to 98%. Also, the percent kill (mortality) of aphids at a fixed dose at 4 ppm in series [7] (4 ppm) came out at 100%. The chromatographic logP in series [8] (setting [9]) is 1.34; in series [8] (setting [10]), 1.59.
Turning to `Cc1ncc(C(=O)N(C)c2cccnc2)n1C` [reference compound], the figures for the Emax at 0.16 ppm in series [5] and in series [6] were 0% and 30%, respectively. Moreover, the percent kill (mortality) of aphids at a fixed dose at 0.8 ppm in series [7] turned out to be 0%. Besides, in series [7] (4 ppm), the Emax at 4 ppm came to 40%.
On to `CCc1ncc(C(=O)N(C)c2cccnc2)n1C` [reference compound], for which the Emax at 0.16 ppm in series [5] and in series [6] was 0% in each case. Also, the percent kill (mortality) of aphids at a fixed dose at 0.8 ppm in series [7] is 0%. Also, in series [7] (4 ppm), the Emax at 4 ppm is 45%.

(Values after patent US10689365B2, “Substituted 2-alkylimidazolylcarboxamides as pesticides” (Bayer CropScience Aktiengesellschaft, priority 2016, dated 2020).)
